Experimental data taken from ChEMBL document CHEMBL2203261, “Selective thyromimetics using receptor and tissue selectivity approaches: prospects for dyslipidemia” (J Med Chem, 2012).

Assays:
[1] = target: T1, Thyroid hormone receptor alpha (Homo sapiens, UniProt P10827); assay: Binding affinity to TRalpha1
T1 sequence (P10827 whole entry): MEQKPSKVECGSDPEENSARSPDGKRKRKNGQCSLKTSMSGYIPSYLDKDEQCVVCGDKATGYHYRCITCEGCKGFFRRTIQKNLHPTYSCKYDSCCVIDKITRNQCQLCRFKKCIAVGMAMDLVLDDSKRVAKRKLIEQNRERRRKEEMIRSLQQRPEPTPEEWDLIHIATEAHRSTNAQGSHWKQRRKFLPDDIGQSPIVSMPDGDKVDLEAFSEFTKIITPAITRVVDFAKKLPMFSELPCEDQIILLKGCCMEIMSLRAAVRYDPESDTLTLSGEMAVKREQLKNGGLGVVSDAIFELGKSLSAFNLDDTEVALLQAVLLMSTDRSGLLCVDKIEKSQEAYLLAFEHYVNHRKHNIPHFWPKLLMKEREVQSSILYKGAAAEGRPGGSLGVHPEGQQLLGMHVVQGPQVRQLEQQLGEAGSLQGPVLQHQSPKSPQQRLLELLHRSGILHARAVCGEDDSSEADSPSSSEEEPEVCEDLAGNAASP

[2] = target: T2, Thyroid hormone receptor beta (Homo sapiens, UniProt P10828); assay: Binding affinity to TRbeta1
T2 sequence (P10828 whole entry): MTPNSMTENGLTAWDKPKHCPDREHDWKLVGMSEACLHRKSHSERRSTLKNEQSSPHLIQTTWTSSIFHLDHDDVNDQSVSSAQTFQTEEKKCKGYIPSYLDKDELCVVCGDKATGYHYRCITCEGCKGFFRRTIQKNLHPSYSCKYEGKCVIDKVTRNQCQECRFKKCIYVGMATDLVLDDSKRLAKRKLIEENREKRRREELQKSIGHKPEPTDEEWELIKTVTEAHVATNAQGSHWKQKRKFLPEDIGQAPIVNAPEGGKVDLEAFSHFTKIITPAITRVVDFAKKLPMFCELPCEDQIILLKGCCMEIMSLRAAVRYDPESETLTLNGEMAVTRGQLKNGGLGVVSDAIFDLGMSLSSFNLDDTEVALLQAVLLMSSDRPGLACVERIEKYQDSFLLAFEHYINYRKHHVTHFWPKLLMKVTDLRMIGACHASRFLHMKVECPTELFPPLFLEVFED

Homo sapiens [3] = assay: Antidyslipidemic activity in obese, hypercholesterolemic patient assessed as reduction in LDL cholesterol at 100 ug administered QD for 2 weeks relative to control; assay type: functional; parameters: scale not given: the % may be the effect or the level left
Rattus norvegicus = assay: Antidyslipidemic activity in po dosed cholesterol fed rat assessed as reduction in cholesterol level administered QD; assay type: functional
Homo sapiens [4] = assay: Antidyslipidemic activity in human assessed as reduction in LDL cholesterol at 100 ug administered QD relative to control; assay type: functional; parameters: scale not given: the % may be the effect or the level left

EC50 [1] [nM]	EC50 [2] [nM]	Structure (SMILES)	other results
18	0.47	O=C(O)Cc1cc(Cl)c(Oc2ccc(O)c(C(=O)NCC(c3ccccc3)c3ccccc3)c2)c(Cl)c1	–
152	2.9	O=C(O)Cc1cc(Cl)c(Oc2ccc(O)c(-c3ccccc3)c2)c(Cl)c1	–
–	–	CC(C)c1cc(Oc2c(Br)cc(NC(=O)CC(=O)O)cc2Br)ccc1O [EPROTIROME]	Activity (Homo sapiens [3]): 40%
–	–	Cc1cc(OCP2(=O)OCC[C@@H](c3cccc(Cl)c3)O2)cc(C)c1Cc1ccc(O)c(C(C)C)c1 (stereo partly drawn) [MB07811]	Ki [2]: 600 nM; ED50 (Rattus norvegicus): 0.4 mg/kg
–	–	Cc1cc(OCC(=O)O)cc(C)c1Cc1ccc(O)c(C(C)C)c1 [SOBETIROME]	Activity (Homo sapiens [4]): 41%
